Source: ChEMBL document CHEMBL1201862, “PubChem BioAssay data set” (2004)
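Cultured in 96-well plates, cells were exposed to test compound for 48 hours across five concentrations. GI50 = concentration required for 50% inhibition of growth.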 Active and inactive are the calls of the source. Rule as the data show it: active = GI50 up to about 1.1 µM and inactive = higher.

Assays:
Assay in all cases: NCI-60 cell line screen, 48 h
[1] = system: SW-620
[2] = system: BT-549
[3] = system: UO-31
[4] = system: SR
[5] = system: M14
[6] = system: NCI-H23
[7] = system: U-251
[8] = system: SF-295
[9] = system: OVCAR-8
[10] = system: K562
[11] = system: A549
[12] = system: MCF7
[13] = system: OVCAR-4
[14] = system: OVCAR-5
[15] = system: T47D
[16] = system: MDA-MB-435
[17] = system: Malme-3M
[18] = system: ACHN
[19] = system: SK-MEL-5
[20] = system: MDA-N
[21] = system: MDA-MB-231
[22] = system: SK-MEL-28
[23] = system: SN12C
[24] = system: HCT-15
[25] = system: UACC-62
[26] = system: SNB-19
[27] = system: CAKI-1
[28] = system: NCI-H460
[29] = system: LOX IMVI
[30] = system: HL-60
[31] = system: HCC 2998
[32] = system: EKVX
[33] = system: SF-539
[34] = system: A498
[35] = system: Hs-578T
[36] = system: NCI/ADR-RES
[37] = system: MOLT-4
[38] = system: DU-145
[39] = system: RXF 393
[40] = system: NCI-H226
[41] = system: HOP-92
[42] = system: SK-OV-3
[43] = system: SF-268
[44] = system: COLO 205
[45] = system: CCRF-CEM
[46] = system: SNB-75
[47] = system: OVCAR-3
[48] = system: UACC-257
[49] = system: KM12
[50] = system: SK-MEL-2
[51] = system: 786-0
[52] = system: NCI-H522
[53] = system: HT-29
[54] = system: PC-3
[55] = system: IGROV-1
[56] = system: HCT-116
[57] = system: HOP-62
[58] = system: TK-10
[59] = system: RPMI-8226

CC(=O)OC(=C(C#N)C#N)c1nccnc1C(C)=O
GI50 [1]: > 20 µM (inactive) | GI50 [2]: 13.3 µM (inactive) | GI50 [3]: > 20 µM (inactive) | GI50 [4]: 18.5 µM (inactive) | GI50 [5]: 4.8 µM (inactive) | GI50 [6]: > 20 µM (inactive) | GI50 [7]: 6.07 µM (inactive) | GI50 [8]: 10.9 µM (inactive) | GI50 [9]: > 20 µM (inactive) | GI50 [10]: 11 µM (inactive) | GI50 [11]: 11.9 µM (inactive) | GI50 [12]: > 20 µM (inactive) | GI50 [13]: > 20 µM (inactive) | GI50 [14]: > 20 µM (inactive) | GI50 [15]: > 20 µM (inactive) | GI50 [16]: > 20 µM (inactive) | GI50 [17]: 9.29 µM (inactive) | GI50 [18]: > 20 µM (inactive) | GI50 [19]: 6.32 µM (inactive) | GI50 [20]: 6.17 µM (inactive) | GI50 [21]: > 20 µM (inactive) | GI50 [22]: 9.77 µM (inactive) | GI50 [23]: > 20 µM (inactive) | GI50 [24]: > 20 µM | GI50 [25]: > 20 µM (inactive) | GI50 [26]: > 20 µM (inactive) | GI50 [27]: > 20 µM (inactive) | GI50 [28]: 7.83 µM (inactive) | GI50 [29]: > 20 µM (inactive) | GI50 [30]: 7.01 µM (inactive) | GI50 [31]: > 20 µM (inactive) | GI50 [32]: > 20 µM (inactive) | GI50 [33]: 7.24 µM (inactive) | GI50 [34]: > 20 µM (inactive) | GI50 [35]: 4.44 µM (inactive) | GI50 [36]: > 20 µM (inactive) | GI50 [37]: > 20 µM (inactive) | GI50 [38]: > 20 µM (inactive) | GI50 [39]: 5.77 µM (inactive) | GI50 [40]: 6.01 µM (inactive) | GI50 [41]: > 20 µM (inactive) | GI50 [42]: > 20 µM (inactive) | GI50 [43]: 3.59 µM (inactive) | GI50 [44]: 4.55 µM (inactive) | GI50 [45]: 11.2 µM (inactive) | GI50 [46]: 3.96 µM (inactive) | GI50 [47]: 14.6 µM (inactive) | GI50 [48]: > 20 µM (inactive) | GI50 [49]: 4.98 µM (inactive) | GI50 [50]: > 20 µM (inactive) | GI50 [51]: > 20 µM (inactive) | GI50 [52]: 19.2 µM (inactive) | GI50 [53]: 4.2 µM (inactive) | GI50 [54]: > 20 µM (inactive) | GI50 [55]: > 20 µM (inactive)

CC(=O)NNc1nc(C)c(C(/C=C/c2ccccc2O)=N/NC(=O)c2ccncc2)s1
GI50 [1]: > 100 µM (inactive) | GI50 [2]: > 100 µM (inactive) | GI50 [3]: > 100 µM (inactive) | GI50 [4]: > 100 µM (inactive) | GI50 [5]: > 100 µM (inactive) | GI50 [6]: > 100 µM (inactive) | GI50 [7]: > 100 µM (inactive) | GI50 [8]: > 100 µM (inactive) | GI50 [9]: > 100 µM (inactive) | GI50 [11]: > 100 µM (inactive) | GI50 [12]: > 100 µM (inactive) | GI50 [13]: > 100 µM (inactive) | GI50 [14]: > 100 µM (inactive) | GI50 [15]: > 100 µM (inactive) | GI50 [16]: > 100 µM (inactive) | GI50 [17]: > 100 µM (inactive) | GI50 [18]: > 100 µM (inactive) | GI50 [56]: > 100 µM (inactive) | GI50 [19]: > 100 µM (inactive) | GI50 [20]: > 100 µM (inactive) | GI50 [21]: > 100 µM (inactive) | GI50 [22]: > 100 µM (inactive) | GI50 [23]: > 100 µM (inactive) | GI50 [24]: > 100 µM | GI50 [25]: > 100 µM (inactive) | GI50 [26]: > 100 µM (inactive) | GI50 [57]: > 100 µM (inactive) | GI50 [27]: > 100 µM (inactive) | GI50 [28]: > 100 µM (inactive) | GI50 [29]: > 100 µM (inactive) | GI50 [30]: > 100 µM (inactive) | GI50 [31]: > 100 µM (inactive) | GI50 [32]: > 100 µM (inactive) | GI50 [33]: > 100 µM (inactive) | GI50 [34]: > 100 µM (inactive) | GI50 [35]: > 100 µM (inactive) | GI50 [36]: > 100 µM (inactive) | GI50 [37]: > 100 µM (inactive) | GI50 [38]: > 100 µM (inactive) | GI50 [39]: > 100 µM (inactive) | GI50 [58]: > 100 µM (inactive) | GI50 [40]: > 100 µM (inactive) | GI50 [41]: > 100 µM (inactive) | GI50 [42]: > 100 µM (inactive) | GI50 [43]: > 100 µM (inactive) | GI50 [44]: > 100 µM (inactive) | GI50 [45]: > 100 µM (inactive) | GI50 [46]: > 100 µM (inactive) | GI50 [47]: > 100 µM (inactive) | GI50 [48]: > 100 µM (inactive) | GI50 [49]: > 100 µM (inactive) | GI50 [50]: > 100 µM (inactive) | GI50 [59]: > 100 µM (inactive) | GI50 [51]: > 100 µM (inactive) | GI50 [52]: > 100 µM (inactive) | GI50 [53]: > 100 µM (inactive) | GI50 [54]: > 100 µM (inactive) | GI50 [55]: > 100 µM (inactive)

O=C(O)c1c(O)c2cc(Br)ccc2oc1=O
GI50 [1]: > 100 µM (inactive) | GI50 [2]: > 100 µM (inactive) | GI50 [4]: > 100 µM (inactive) | GI50 [5]: > 100 µM (inactive) | GI50 [6]: > 100 µM (inactive) | GI50 [7]: > 100 µM (inactive) | GI50 [8]: > 100 µM (inactive) | GI50 [9]: > 100 µM (inactive) | GI50 [10]: > 100 µM (inactive) | GI50 [11]: > 100 µM (inactive) | GI50 [12]: > 100 µM (inactive) | GI50 [13]: > 100 µM (inactive) | GI50 [14]: > 100 µM (inactive) | GI50 [15]: > 100 µM (inactive) | GI50 [16]: > 100 µM (inactive) | GI50 [17]: > 100 µM (inactive) | GI50 [18]: > 100 µM (inactive) | GI50 [56]: > 100 µM (inactive) | GI50 [19]: > 100 µM (inactive) | GI50 [20]: > 100 µM (inactive) | GI50 [21]: > 100 µM (inactive) | GI50 [22]: > 100 µM (inactive) | GI50 [23]: > 100 µM (inactive) | GI50 [24]: > 100 µM | GI50 [25]: > 100 µM (inactive) | GI50 [26]: > 100 µM (inactive) | GI50 [57]: > 100 µM (inactive) | GI50 [27]: > 100 µM (inactive) | GI50 [28]: > 100 µM (inactive) | GI50 [29]: > 100 µM (inactive) | GI50 [30]: > 100 µM (inactive) | GI50 [31]: > 100 µM (inactive) | GI50 [32]: > 100 µM (inactive) | GI50 [33]: > 100 µM (inactive) | GI50 [34]: > 100 µM (inactive) | GI50 [35]: > 100 µM (inactive) | GI50 [36]: > 100 µM (inactive) | GI50 [37]: > 100 µM (inactive) | GI50 [38]: > 100 µM (inactive) | GI50 [39]: > 100 µM (inactive) | GI50 [58]: > 100 µM (inactive) | GI50 [40]: > 100 µM (inactive) | GI50 [41]: 72.1 µM (inactive) | GI50 [43]: > 100 µM (inactive) | GI50 [44]: > 100 µM (inactive) | GI50 [45]: > 100 µM (inactive) | GI50 [46]: > 100 µM (inactive) | GI50 [47]: > 100 µM (inactive) | GI50 [48]: > 100 µM (inactive) | GI50 [50]: > 100 µM (inactive) | GI50 [59]: > 100 µM (inactive) | GI50 [51]: > 100 µM (inactive) | GI50 [52]: > 100 µM (inactive) | GI50 [53]: > 100 µM (inactive) | GI50 [54]: > 100 µM (inactive) | GI50 [55]: > 100 µM (inactive)

O=c1[nH]nc(-c2ccccc2)n1/N=C/c1cccnc1
GI50 [1]: > 100 µM (inactive) | GI50 [2]: 39.2 µM (inactive) | GI50 [3]: > 100 µM (inactive) | GI50 [4]: 52.7 µM (inactive) | GI50 [5]: > 100 µM (inactive) | GI50 [6]: > 100 µM (inactive) | GI50 [7]: 76.4 µM (inactive) | GI50 [8]: > 100 µM (inactive) | GI50 [9]: > 100 µM (inactive) | GI50 [10]: 40.5 µM (inactive) | GI50 [11]: > 100 µM (inactive) | GI50 [12]: 47.1 µM (inactive) | GI50 [14]: 92.5 µM (inactive) | GI50 [15]: 31.6 µM (inactive) | GI50 [16]: 64.7 µM (inactive) | GI50 [17]: > 100 µM (inactive) | GI50 [18]: 63.7 µM (inactive) | GI50 [56]: 54.3 µM (inactive) | GI50 [19]: 57 µM (inactive) | GI50 [20]: 34.9 µM (inactive) | GI50 [21]: 48.8 µM (inactive) | GI50 [22]: > 100 µM (inactive) | GI50 [23]: 65 µM (inactive) | GI50 [24]: 61.1 µM | GI50 [26]: > 100 µM (inactive) | GI50 [57]: > 100 µM (inactive) | GI50 [27]: 25.1 µM (inactive) | GI50 [28]: 43.8 µM (inactive) | GI50 [29]: > 100 µM (inactive) | GI50 [30]: 50.2 µM (inactive) | GI50 [31]: 95.5 µM (inactive) | GI50 [32]: 71.1 µM (inactive) | GI50 [33]: 40.4 µM (inactive) | GI50 [34]: 27 µM (inactive) | GI50 [35]: 37.5 µM (inactive) | GI50 [36]: 69.8 µM (inactive) | GI50 [37]: 64 µM (inactive) | GI50 [38]: 78.5 µM (inactive) | GI50 [39]: 34.4 µM (inactive) | GI50 [58]: > 100 µM (inactive) | GI50 [40]: 57.9 µM (inactive) | GI50 [41]: 61.9 µM (inactive) | GI50 [43]: > 100 µM (inactive) | GI50 [45]: 69.5 µM (inactive) | GI50 [46]: 50.6 µM (inactive) | GI50 [47]: > 100 µM (inactive) | GI50 [48]: > 100 µM (inactive) | GI50 [49]: 23.4 µM (inactive) | GI50 [59]: 74 µM (inactive) | GI50 [51]: > 100 µM (inactive) | GI50 [52]: 61.8 µM (inactive) | GI50 [53]: 93.1 µM (inactive) | GI50 [54]: 52.2 µM (inactive) | GI50 [55]: > 100 µM (inactive)
